# In US5053070A, “Pyrimidine derivatives, preparation processes thereof, herbicide containing the same, and herbicidal compositions containing the same along with other active ingredient” (Mitsui Toatsu Chemicals, Incorporated, priority 1988, dated 1991):
# Like-named read-outs stand apart in the source and are kept apart here.
# How the values were obtained:
# Type in all cases: in vivo
# [1] = test system: redroot pigweed; experiment: Upland foliar application test by mixed formulations (Test 7); details: Amaranthus retroflexus, 720 h, read-out: Herbicidal effects (%) Redrood pigweed Ea
# Experimental: (§1) Resin-made 1/10,000-are pots were filled with the soil of an upland field. Redroot pigweed, morningglories, johnsongrass, barnyardgrass and green foxtail were separately seeded and were allowed to germinate in a green house. When each plant grew to the stage of 2-3 leaves, an emulsion formulated from predetermined amounts of two test compounds of different kinds in a similar manner to the method described in Formulation Example 16 was diluted with water to a predetermined dilution rate and then sprayed at an application rate equal to 5 l per are onto the foliage of each plant by means of a pressure-operated ULV (ultra low volume) sprayer. Influence to the weeds were observed on the 30th day after the spray of the herbicides. In the table, each Ea means an acutally measured value of herbicidal activities when two kinds of herbicides were mixed. Each Ec is an expected value for herbicidal activities, calculated in accordance with the below-described calculation formula proposed by Colby et al. [Colby, S. R., Weed 15, 20-22 (1967)]. Ea>Ec indicates the existence of synergistic action while […] action. [formula] Ec: Growth inhibition rate (%) expected when Ingredient I and Ingredient II are mixed.
# (§2) Ex: Growth inhibition rate (%) when treated with Ingredient I alone.
# (§3) Ey: Growth inhibition rate (%) when treated with Ingredient II alone.
# [2] = test system: morningglories; experiment: as above; details: Ipomoea, 720 h, read-out: Herbicidal effects (%) Morningglory Ea
# Experimental: as §1, §2, §3
# [3] = test system: johnsongrass; experiment: as above; details: Sorghum halepense, 720 h; for pest or weed control at 1000 g/ha: read-out: Herbicidal effects (%) Johnsongrass Ea, applied alone, 1 kg/ha, foliar, 30th day; for pest or weed control at 300 g/ha: read-out: Herbicidal effects (%) Johnsongrass Ea, applied alone, 0.3 kg/ha, foliar, 30th day
# Experimental: as §1, §2, §3
# [4] = test system: green foxtail; experiment: as above; details: Setaria viridis, 720 h, read-out: Herbicidal effects (%) Green foxtail Ea
# Experimental: as §1, §2, §3
# [5] = test system: barnyardgrass; experiment: as above; details: Echinochloa crus-galli, 720 h, read-out: Herbicidal effects (%) Barnyardgrass Ea
# Experimental: as §1, §2, §3
# [6] = test system: redroot pigweed; experiment: Upland foliar application test by mixed formulations, concentration gradient (Test 8)
# Experimental: (§4) Resin-made 1/10,000-are pots were filled with the soil of an upland field. Redroot pigweed and johnsongrass were separately seeded and were allowed to germinate in a green house. When each plant grew to the stage of 2-3 leaves, emulsions formulated with concentration gradient from predetermined amounts of two test compounds of different kinds in a similar manner to the method described in Formulation Example 16 was diluted with water to a predetermined dilution rate and then sprayed at an application rate equal to 5 l per are onto the foliage of each plant by means of a pressure-operated ULV (ultra low volume) sprayer. Influence to the weeds were observed on the 40th day after the spray of the herbicides. The results are shown in Table 9, In the table, Ea have the same meanings as in Test 7, and Ea>Ec indicates the existence of synergistic action while Ea<Ec indicates the existence of antagonistic action.
# [7] = test system: johnsongrass; experiment: as above
# Experimental: as §4
# [8] = Amaranthus retroflexus, 960 h, read-out: Herbicidal effects Redrood pigweed Ea
# [9] = Sorghum halepense, 960 h, read-out: Herbicidal effects Johnsongrass Ea
# [10] = Amaranthus retroflexus, 960 h, applied alone, 2 g/a, 40th day, read-out: Herbicidal effects Redrood pigweed Ea
# [11] = Amaranthus retroflexus, 960 h, applied alone, 4 g/a, 40th day, read-out: Herbicidal effects Redrood pigweed Ea
# [12] = Amaranthus retroflexus, 960 h, applied alone, 8 g/a, 40th day, read-out: Herbicidal effects Redrood pigweed Ea
# [13] = Sorghum halepense, 960 h, applied alone, 2 g/a, 40th day, read-out: Herbicidal effects Johnsongrass Ea
# [14] = Sorghum halepense, 960 h, applied alone, 4 g/a, 40th day, read-out: Herbicidal effects Johnsongrass Ea
# [15] = Sorghum halepense, 960 h, applied alone, 8 g/a, 40th day, read-out: Herbicidal effects Johnsongrass Ea
# [16] = applied alone, 0.2 kg/ha, 30th day
# [17] = read-out: Herbicidal effects (%) Johnsongrass Ea, applied alone, 0.5 kg/ha, foliar, 30th day
# [18] = applied alone, 0.3 kg/ha, 30th day
compound,measurement,setting,value
"CCC/C(=N\OCC)C1=C(O)CC(CC(C)SCC)CC1=O (stereo not shown) [sethoxydim, reference compound]",pest or weed control at 200 g/ha,[1],0%
same,pest or weed control at 200 g/ha,[2],0%
same,pest or weed control at 200 g/ha,"[3]; read-out: Herbicidal effects (%) Johnsongrass Ea, applied alone, 0.2 kg/ha, foliar, 30th day",95%
same,pest or weed control at 200 g/ha,[4],100%
same,pest or weed control at 200 g/ha,[5],0%
same,pest or weed control at 100 g/ha,[6]; [8],0%
same,pest or weed control at 200 g/ha,[6]; [8],0%
same,pest or weed control at 100 g/ha,[7]; [9],70%
same,pest or weed control at 200 g/ha,[7]; [9],85%
"CC(C)N1C(=O)c2ccccc2NS1(=O)=O [bentazon, 3-isopropyl-(1H)-2,1,3-benzothiadiazin-4-(3H)-one-2,2-dioxide]",pest or weed control at 500 g/ha,"[1]; applied alone, 0.5 kg/ha, 30th day",40%
same,pest or weed control at 500 g/ha,"[3]; applied alone, 0.5 kg/ha, 30th day, read-out: Herbicidal effects (%) Johnsongrass Ea",0%
same,pest or weed control at 200 g/ha,[6]; [10],30%
same,pest or weed control at 400 g/ha,[6]; [11],40%
same,pest or weed control at 800 g/ha,[6]; [12],70%
same,pest or weed control at 200 g/ha,[7]; [13],0%
same,pest or weed control at 400 g/ha,[7]; [14],0%
same,pest or weed control at 800 g/ha,[7]; [15],20%
"CCNc1nc(Cl)nc(NC(C)C)n1 [atrazine, 2-chloro-4-ethylamino-6-isopropylamino-1,3,5-triazine]",pest or weed control at 800 g/ha,[1],40%
same,pest or weed control at 800 g/ha,"[3]; read-out: Herbicidal effects (%) Johnsongrass Ea, applied alone, 0.8 kg/ha, foliar, 30th day",10%
same,pest or weed control at 200 g/ha,[6]; [8],10%
same,pest or weed control at 400 g/ha,[6]; [8],30%
same,pest or weed control at 800 g/ha,[6]; [8],40%
same,pest or weed control at 200 g/ha,[7]; [9],0%
same,pest or weed control at 400 g/ha,[7]; [9],10%
same,pest or weed control at 800 g/ha,[7]; [9],10%
"CCC(=O)Nc1ccc(Cl)c(Cl)c1 [propanil, N-(3,4-dichlorophenyl)propanamide]",pest or weed control at 3000 g/ha,"[3]; read-out: Herbicidal effects (%) Johnsongrass Ea, applied alone, 3 kg/ha, foliar, 30th day",10%
same,pest or weed control at 3000 g/ha,[5],40%
same,pest or weed control at 2000 g/ha,[6]; [8],30%
same,pest or weed control at 4000 g/ha,[6]; [8],70%
same,pest or weed control at 8000 g/ha,[6]; [8],70%
same,pest or weed control at 2000 g/ha,[7]; [9],20%
same,pest or weed control at 4000 g/ha,[7]; [9],30%
same,pest or weed control at 8000 g/ha,[7]; [9],50%
"CCc1cccc(CC)c1N(COC)C(=O)CCl [alachlor, N-methoxymethyl-2',6'-diethyl-2-chloroacetanilide, reference compound]",pest or weed control at 1000 g/ha,[1],40%
same,pest or weed control at 1000 g/ha,[3],30%
"2-methylthio-4-methylamino-6-isopropylamino-1,3,5-triazine [Ametryn]",Herbicidal effects Redrood pigweed Ea,"[6]; applied alone, 2 g/a, 40th day",10%
same,Herbicidal effects Redrood pigweed Ea,"[6]; applied alone, 4 g/a, 40th day",20%
same,Herbicidal effects Redrood pigweed Ea,"[6]; applied alone, 8 g/a, 40th day",30%
same,Herbicidal effects Johnsongrass Ea,"[7]; applied alone, 2 g/a, 40th day",0%
same,Herbicidal effects Johnsongrass Ea,"[7]; applied alone, 4 g/a, 40th day",10%
same,Herbicidal effects Johnsongrass Ea,"[7]; applied alone, 8 g/a, 40th day",20%
"CSc1nnc(C(C)(C)C)c(=O)n1N [metribuzin, 4-amino-6-tert-butyl-3-methylthio-1,2,4-triazin-5(4H)-one, reference compound]",pest or weed control at 200 g/ha,[1]; [16],30%
same,pest or weed control at 200 g/ha,[4]; [16],10%
"CSc1nc(NC(C)C)nc(NC(C)C)n1 [prometryn, 2-methylthio-4,6-bis(isopropylamino)-1,3,5-triazine]",pest or weed control at 500 g/ha,[2],30%
same,pest or weed control at 500 g/ha,[3]; [17],20%
same,pest or weed control at 200 g/ha,[6]; [8],10%
same,pest or weed control at 400 g/ha,[6]; [8],20%
same,pest or weed control at 800 g/ha,[6]; [8],40%
same,pest or weed control at 200 g/ha,[7]; [9],0%
same,pest or weed control at 400 g/ha,[7]; [9],10%
same,pest or weed control at 800 g/ha,[7]; [9],20%
"CON(C)C(=O)Nc1ccc(Cl)c(Cl)c1 [linuron, 3-(3,4-dichlorophenyl)-1-methoxy-1-methylurea]",pest or weed control at 300 g/ha,[2],30%
same,pest or weed control at 300 g/ha,[3],10%
same,pest or weed control at 200 g/ha,[6]; [8],40%
same,pest or weed control at 400 g/ha,[6]; [8],70%
same,pest or weed control at 800 g/ha,[6]; [8],85%
same,pest or weed control at 200 g/ha,[7]; [9],0%
same,pest or weed control at 400 g/ha,[7]; [9],10%
same,pest or weed control at 800 g/ha,[7]; [9],20%
"O=C(O)c1cc(Oc2ccc(C(F)(F)F)cc2Cl)ccc1[N+](=O)[O-] [blazer, reference compound]",pest or weed control at 300 g/ha,[1]; [18],100%
same,pest or weed control at 300 g/ha,[2]; [18],100%
same,pest or weed control at 300 g/ha,[4]; [18],40%
same,pest or weed control at 300 g/ha,[5]; [18],100%
"CC(C)c1ccc(NC(=O)N(C)C)cc1 [Isoproturon, 3-(4-isopropylphenyl)-1,1-dimethylurea]",pest or weed control at 200 g/ha,[6]; [10],10%
same,pest or weed control at 400 g/ha,[6]; [11],20%
same,pest or weed control at 800 g/ha,[6]; [12],40%
same,pest or weed control at 200 g/ha,[7]; [13],0%
same,pest or weed control at 400 g/ha,[7]; [14],10%
same,pest or weed control at 800 g/ha,[7]; [15],20%
"CCNc1nc(Cl)nc(NC(C)(C)C#N)n1 [cyanazine, 2-(2-chloro-4-ethylamino-1,3,5-triazine-6-ylamino)-2-methylpropionitrile]",pest or weed control at 1000 g/ha,[1],40%
same,pest or weed control at 1000 g/ha,[3],10%
same,pest or weed control at 400 g/ha,[6]; [8],10%
same,pest or weed control at 800 g/ha,[6]; [8],30%
same,pest or weed control at 1600 g/ha,[6]; [8],50%
same,pest or weed control at 400 g/ha,[7]; [9],0%
same,pest or weed control at 800 g/ha,[7]; [9],10%
same,pest or weed control at 1600 g/ha,[7]; [9],20%
"O=C(O)c1ccccc1C(=O)Nc1cccc2ccccc12 [naptalam, 2-(1-naphthalenylaminocarbonyl)benzoic acid]",pest or weed control at 1000 g/ha,[1],10%
same,pest or weed control at 1000 g/ha,[3],10%
same,pest or weed control at 400 g/ha,[6]; [8],0%
same,pest or weed control at 800 g/ha,[6]; [8],10%
same,pest or weed control at 1600 g/ha,[6]; [8],20%
same,pest or weed control at 400 g/ha,[7]; [9],0%
same,pest or weed control at 800 g/ha,[7]; [9],10%
same,pest or weed control at 1600 g/ha,[7]; [9],20%
"CN(C)C(=O)Nc1ccc(Cl)c(Cl)c1 [diuron, 3-(3,4-dichlorophenyl)-1,1-dimethylurea]",pest or weed control at 300 g/ha,[1],40%
same,pest or weed control at 300 g/ha,[3],10%
same,pest or weed control at 200 g/ha,[6]; [8],30%
same,pest or weed control at 400 g/ha,[6]; [8],70%
same,pest or weed control at 800 g/ha,[6]; [8],85%
same,pest or weed control at 200 g/ha,[7]; [9],0%
same,pest or weed control at 400 g/ha,[7]; [9],10%
same,pest or weed control at 800 g/ha,[7]; [9],20%
"CCc1cccc(C)c1N(C(=O)CCl)C(C)COC (stereo not shown) [metolachlor, 2-chloro-2'-ethyl-6'-methyl-N-(2-methoxy-1-methylethyl)acetanilide, reference compound]",pest or weed control at 1000 g/ha,[1],40%
same,pest or weed control at 1000 g/ha,[4],10%
"CN(C)C(=O)Nc1cccc(C(F)(F)F)c1 [fluometuron, 1,1-dimethyl-3-(3-trifluoromethylphenyl)urea]",pest or weed control at 500 g/ha,[1],30%
same,pest or weed control at 500 g/ha,[3]; [17],30%
same,pest or weed control at 200 g/ha,[6]; [8],20%
same,pest or weed control at 400 g/ha,[6]; [8],30%
same,pest or weed control at 800 g/ha,[6]; [8],50%
same,pest or weed control at 200 g/ha,[7]; [9],0%
same,pest or weed control at 400 g/ha,[7]; [9],10%
same,pest or weed control at 800 g/ha,[7]; [9],20%
"CCCC(C)C(=O)Nc1ccc(C(C)C)c(Cl)c1 (stereo not shown) [MT-5950, N-(3-chloro-4-isopropylphenyl)-2-methylpentamide]",pest or weed control at 200 g/ha,[6]; [10],30%
same,pest or weed control at 400 g/ha,[6]; [11],70%
same,pest or weed control at 800 g/ha,[6]; [12],85%
same,pest or weed control at 200 g/ha,[7]; [13],10%
same,pest or weed control at 400 g/ha,[7]; [14],10%
same,pest or weed control at 800 g/ha,[7]; [15],20%
